From patent US10231954B2, “Neurodegenerative therapies” (LYTIX BIOPHARMA AS, priority 2014, dated 2019)
Where two headings read alike, the source gives them in different places.

What was measured:
Assay type in all cases: biochemical
[1] = biological target: DYRK1A (Homo sapiens, UniProt Q13627); test: DYRK 1A assay (kinase profiling); details: for remaining activity at 100 µM: read-out: residual kinase activity, DYRK1A
Procedure: Assays are stopped by addition of 5 μl of 0.5 M (3%) orthophosphoric acid and then harvested onto P81 Unifilter plates with a wash buffer of 50 mM orthophosphoric acid.
(§1) Any value less that 25 is considered to be highly significant inhibition.

[2] = biological target: SmMLCK (Homo sapiens, UniProt Q15746); test: Kinase profiling SmMLCK; details: for remaining activity at 100 µM: read-out: residual kinase activity, SmMLCK
[3] = biological target: T1, IRAK4 (Homo sapiens, UniProt Q9NWZ3); test: Kinase profiling IRAK4; details: for remaining activity at 100 µM: read-out: residual kinase activity, IRAK4
T1 sequence (Q9NWZ3 1-460): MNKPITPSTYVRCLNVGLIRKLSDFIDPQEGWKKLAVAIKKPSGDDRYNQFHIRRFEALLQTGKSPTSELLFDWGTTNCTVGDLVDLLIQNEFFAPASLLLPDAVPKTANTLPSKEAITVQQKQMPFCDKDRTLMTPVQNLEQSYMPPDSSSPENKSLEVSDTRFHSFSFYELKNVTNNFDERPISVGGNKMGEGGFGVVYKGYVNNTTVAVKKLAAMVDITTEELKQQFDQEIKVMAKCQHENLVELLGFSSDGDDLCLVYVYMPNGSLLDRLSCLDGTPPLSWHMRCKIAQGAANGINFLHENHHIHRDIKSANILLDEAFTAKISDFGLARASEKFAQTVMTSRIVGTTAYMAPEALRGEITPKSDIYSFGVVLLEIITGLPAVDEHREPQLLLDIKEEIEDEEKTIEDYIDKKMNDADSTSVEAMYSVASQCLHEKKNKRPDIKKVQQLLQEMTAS
Description: as §1

[4] = biological target: PLK1 (Homo sapiens, UniProt P53350); test: Kinase profiling PLK1; details: for remaining activity at 100 µM: read-out: residual kinase activity, PLK1
Description: as §1

[5] = biological target: PKCγ (Homo sapiens, UniProt P05129); test: Kinase profiling PKCγ; details: for remaining activity at 100 µM: read-out: residual kinase activity, PKCγ
Description: as §1

[6] = biological target: ERK1 (Homo sapiens, UniProt P27361); test: Kinase profiling ERK1; details: for remaining activity at 100 µM: read-out: residual kinase activity, ERK1
Description: as §1

[7] = biological target: MARK3 (Homo sapiens, UniProt P27448); test: Kinase profiling MARK3; details: for remaining activity at 100 µM: read-out: residual kinase activity, MARK3
Description: as §1

[8] = biological target: EPH-A2 (Homo sapiens, UniProt P29317); test: Kinase profiling EPH-A2; details: for remaining activity at 100 µM: read-out: residual kinase activity, EPH-A2
Description: as §1

[9] = biological target: T2, TAK1 (Homo sapiens, UniProt O43318); test: Kinase profiling TAK1; details: for remaining activity at 100 µM: read-out: residual kinase activity, TAK1
T2 sequence (O43318 1-303 limits assumed): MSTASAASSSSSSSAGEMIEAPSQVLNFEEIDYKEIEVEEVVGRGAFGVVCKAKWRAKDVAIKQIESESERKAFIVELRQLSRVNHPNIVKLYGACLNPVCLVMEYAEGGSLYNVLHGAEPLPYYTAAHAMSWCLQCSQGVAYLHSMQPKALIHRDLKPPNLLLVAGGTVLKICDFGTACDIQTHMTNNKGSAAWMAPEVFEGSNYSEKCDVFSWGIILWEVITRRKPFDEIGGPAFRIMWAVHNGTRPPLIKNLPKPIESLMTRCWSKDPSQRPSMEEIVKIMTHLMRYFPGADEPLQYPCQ
T2 sequence (Q15750 437-504 partner limits assumed): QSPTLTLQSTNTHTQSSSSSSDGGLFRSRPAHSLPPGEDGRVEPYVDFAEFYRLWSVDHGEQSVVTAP
Description: as §1

[10] = biological target: HIPK2 (Homo sapiens, UniProt Q9H2X6); test: Kinase profiling HIPK2; details: for remaining activity at 100 µM: read-out: residual kinase activity, HIPK2
Description: as §1

[11] = biological target: T3, MST2 (Homo sapiens, UniProt Q13188); test: Kinase profiling MST2; details: for remaining activity at 100 µM: read-out: residual kinase activity, MST2
T3 sequence (Q13188 1-491): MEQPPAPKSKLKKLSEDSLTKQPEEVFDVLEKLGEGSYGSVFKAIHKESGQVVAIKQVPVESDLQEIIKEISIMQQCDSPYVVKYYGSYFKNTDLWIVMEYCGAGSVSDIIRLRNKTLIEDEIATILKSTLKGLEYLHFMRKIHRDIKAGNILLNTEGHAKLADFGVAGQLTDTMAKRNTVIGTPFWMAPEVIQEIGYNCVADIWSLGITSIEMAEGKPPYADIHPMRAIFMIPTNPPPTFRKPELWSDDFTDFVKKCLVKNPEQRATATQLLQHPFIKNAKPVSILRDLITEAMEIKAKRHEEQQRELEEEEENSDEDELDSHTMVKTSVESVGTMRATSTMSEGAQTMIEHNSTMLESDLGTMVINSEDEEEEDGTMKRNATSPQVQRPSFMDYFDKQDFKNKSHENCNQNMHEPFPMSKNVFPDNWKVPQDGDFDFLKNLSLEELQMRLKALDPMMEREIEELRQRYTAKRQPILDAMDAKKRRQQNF
Description: as §1

[12] = biological target: RIPK2 (Homo sapiens, UniProt O43353); test: Kinase profiling RIPK2; details: for remaining activity at 100 µM: read-out: residual kinase activity, RIPK2
Description: as §1

[13] = test system: VEG-FR; test: Kinase profiling VEG-FR
Description: as §1

[14] = biological target: CHK2 (Homo sapiens, UniProt O96017); test: Kinase profiling CHK2; details: for remaining activity at 100 µM: read-out: residual kinase activity, CHK2
Description: as §1

[15] = biological target: T4, p38g MAPK (Homo sapiens, UniProt P53778); test: Kinase profiling p38g MAPK; details: for remaining activity at 100 µM: read-out: residual kinase activity, p38g MAPK
T4 sequence (P53778 1-367): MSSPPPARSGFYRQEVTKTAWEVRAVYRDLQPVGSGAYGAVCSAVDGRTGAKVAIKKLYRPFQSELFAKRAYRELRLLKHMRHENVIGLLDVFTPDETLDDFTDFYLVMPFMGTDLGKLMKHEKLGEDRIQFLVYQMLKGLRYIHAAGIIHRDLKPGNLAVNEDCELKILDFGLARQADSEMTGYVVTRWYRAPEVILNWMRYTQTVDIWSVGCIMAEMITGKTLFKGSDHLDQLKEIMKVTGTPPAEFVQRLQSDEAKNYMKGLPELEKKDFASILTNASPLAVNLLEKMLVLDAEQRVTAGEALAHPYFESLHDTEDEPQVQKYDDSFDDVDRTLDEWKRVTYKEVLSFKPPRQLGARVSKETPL
Description: as §1

[16] = biological target: PKBb (Homo sapiens, UniProt P31751); test: Kinase profiling PKBb; details: for remaining activity at 100 µM: read-out: residual kinase activity, PKBb; for residual kinase activity, PKBb: 100 micromolar inhibitor concentration, 100 is no change
Description: as §1

[17] = biological target: PRK2 (Homo sapiens, UniProt Q16513); test: Kinase profiling PRK2; details: for remaining activity at 100 µM: read-out: residual kinase activity, PRK2
Description: as §1

[18] = 100 micromolar inhibitor concentration, 100 is no change
[19] = 100 micromolar inhibitor, 100 = no change

Sequence of EPH-A2 (P29317 24-976, species assumed): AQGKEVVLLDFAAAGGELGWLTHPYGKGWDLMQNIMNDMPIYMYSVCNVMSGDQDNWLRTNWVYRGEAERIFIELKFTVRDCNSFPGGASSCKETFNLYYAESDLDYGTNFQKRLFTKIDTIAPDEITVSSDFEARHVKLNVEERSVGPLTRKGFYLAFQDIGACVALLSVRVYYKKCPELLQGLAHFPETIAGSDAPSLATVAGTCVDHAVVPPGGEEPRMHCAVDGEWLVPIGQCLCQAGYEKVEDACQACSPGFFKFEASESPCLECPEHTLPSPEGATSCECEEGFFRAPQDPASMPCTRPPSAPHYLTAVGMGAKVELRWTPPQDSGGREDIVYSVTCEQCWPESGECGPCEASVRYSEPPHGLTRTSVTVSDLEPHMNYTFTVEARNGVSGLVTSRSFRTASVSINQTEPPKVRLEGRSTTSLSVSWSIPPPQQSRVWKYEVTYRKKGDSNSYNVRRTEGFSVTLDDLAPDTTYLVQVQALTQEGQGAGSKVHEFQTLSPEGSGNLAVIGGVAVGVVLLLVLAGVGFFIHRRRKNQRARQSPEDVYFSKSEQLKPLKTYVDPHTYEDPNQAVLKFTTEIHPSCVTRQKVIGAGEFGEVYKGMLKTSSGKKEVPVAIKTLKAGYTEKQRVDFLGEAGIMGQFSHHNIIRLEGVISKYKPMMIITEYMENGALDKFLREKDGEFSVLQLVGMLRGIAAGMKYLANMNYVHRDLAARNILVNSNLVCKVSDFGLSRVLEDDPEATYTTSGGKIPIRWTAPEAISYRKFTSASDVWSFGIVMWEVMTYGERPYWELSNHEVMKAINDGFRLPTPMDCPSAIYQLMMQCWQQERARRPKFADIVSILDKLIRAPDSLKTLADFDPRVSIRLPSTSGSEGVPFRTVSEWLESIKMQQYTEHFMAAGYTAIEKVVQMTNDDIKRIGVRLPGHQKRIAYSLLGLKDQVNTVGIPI
Sequence of PRK2 (Q16513 whole entry, species assumed): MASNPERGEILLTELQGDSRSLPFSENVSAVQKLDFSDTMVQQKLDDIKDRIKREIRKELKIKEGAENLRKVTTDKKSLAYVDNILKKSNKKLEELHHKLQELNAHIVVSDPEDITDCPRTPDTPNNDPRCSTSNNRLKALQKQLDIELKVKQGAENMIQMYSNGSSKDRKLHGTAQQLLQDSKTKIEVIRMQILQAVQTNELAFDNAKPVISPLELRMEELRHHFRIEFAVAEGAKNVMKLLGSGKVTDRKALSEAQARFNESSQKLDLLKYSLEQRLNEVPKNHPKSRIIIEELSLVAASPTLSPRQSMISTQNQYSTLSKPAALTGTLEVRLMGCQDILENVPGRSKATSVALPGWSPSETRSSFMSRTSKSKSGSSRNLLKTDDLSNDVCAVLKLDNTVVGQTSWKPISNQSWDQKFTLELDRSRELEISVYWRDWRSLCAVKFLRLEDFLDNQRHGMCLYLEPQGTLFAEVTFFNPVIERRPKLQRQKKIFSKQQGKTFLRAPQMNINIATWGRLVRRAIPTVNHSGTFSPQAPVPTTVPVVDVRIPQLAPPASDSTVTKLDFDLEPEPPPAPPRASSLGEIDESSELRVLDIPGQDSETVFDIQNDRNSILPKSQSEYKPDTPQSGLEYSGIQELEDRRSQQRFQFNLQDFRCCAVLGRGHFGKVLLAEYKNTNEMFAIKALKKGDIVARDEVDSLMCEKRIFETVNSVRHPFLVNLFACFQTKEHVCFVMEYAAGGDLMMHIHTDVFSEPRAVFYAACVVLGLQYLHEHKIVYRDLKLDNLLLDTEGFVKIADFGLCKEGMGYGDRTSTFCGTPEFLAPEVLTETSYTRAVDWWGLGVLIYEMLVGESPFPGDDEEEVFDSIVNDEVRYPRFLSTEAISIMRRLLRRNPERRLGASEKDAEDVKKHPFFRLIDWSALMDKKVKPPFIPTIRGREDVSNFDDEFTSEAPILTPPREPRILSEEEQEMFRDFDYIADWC
Sequence of ERK1 (P27361 whole entry, species assumed): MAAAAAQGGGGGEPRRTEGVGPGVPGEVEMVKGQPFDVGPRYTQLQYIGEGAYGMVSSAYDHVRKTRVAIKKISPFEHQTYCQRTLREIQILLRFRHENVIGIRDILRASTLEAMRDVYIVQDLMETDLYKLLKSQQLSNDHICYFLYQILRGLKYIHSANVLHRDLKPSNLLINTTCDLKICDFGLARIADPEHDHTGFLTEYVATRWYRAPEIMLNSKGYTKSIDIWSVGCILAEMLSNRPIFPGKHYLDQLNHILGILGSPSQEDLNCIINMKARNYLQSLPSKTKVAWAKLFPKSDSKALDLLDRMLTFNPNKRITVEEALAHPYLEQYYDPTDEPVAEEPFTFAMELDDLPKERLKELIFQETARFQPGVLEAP
Sequence of PLK1 (P53350 whole entry, species assumed): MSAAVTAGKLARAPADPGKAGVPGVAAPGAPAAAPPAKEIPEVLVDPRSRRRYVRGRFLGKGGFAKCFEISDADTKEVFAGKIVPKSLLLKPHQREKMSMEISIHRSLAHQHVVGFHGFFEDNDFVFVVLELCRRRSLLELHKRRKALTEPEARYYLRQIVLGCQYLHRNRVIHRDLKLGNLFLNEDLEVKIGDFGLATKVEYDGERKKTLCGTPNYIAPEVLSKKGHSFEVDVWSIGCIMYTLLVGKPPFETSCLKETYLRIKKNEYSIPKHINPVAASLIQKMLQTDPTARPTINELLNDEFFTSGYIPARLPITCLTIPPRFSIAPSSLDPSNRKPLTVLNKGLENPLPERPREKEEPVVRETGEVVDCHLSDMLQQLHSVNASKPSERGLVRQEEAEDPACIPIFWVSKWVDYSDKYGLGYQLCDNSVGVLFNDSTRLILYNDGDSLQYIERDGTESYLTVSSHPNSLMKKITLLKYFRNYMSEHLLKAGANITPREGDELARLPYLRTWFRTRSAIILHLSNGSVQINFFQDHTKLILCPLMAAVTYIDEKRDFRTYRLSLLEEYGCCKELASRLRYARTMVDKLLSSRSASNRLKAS
Sequence of MARK3 (P27448 whole entry, species assumed): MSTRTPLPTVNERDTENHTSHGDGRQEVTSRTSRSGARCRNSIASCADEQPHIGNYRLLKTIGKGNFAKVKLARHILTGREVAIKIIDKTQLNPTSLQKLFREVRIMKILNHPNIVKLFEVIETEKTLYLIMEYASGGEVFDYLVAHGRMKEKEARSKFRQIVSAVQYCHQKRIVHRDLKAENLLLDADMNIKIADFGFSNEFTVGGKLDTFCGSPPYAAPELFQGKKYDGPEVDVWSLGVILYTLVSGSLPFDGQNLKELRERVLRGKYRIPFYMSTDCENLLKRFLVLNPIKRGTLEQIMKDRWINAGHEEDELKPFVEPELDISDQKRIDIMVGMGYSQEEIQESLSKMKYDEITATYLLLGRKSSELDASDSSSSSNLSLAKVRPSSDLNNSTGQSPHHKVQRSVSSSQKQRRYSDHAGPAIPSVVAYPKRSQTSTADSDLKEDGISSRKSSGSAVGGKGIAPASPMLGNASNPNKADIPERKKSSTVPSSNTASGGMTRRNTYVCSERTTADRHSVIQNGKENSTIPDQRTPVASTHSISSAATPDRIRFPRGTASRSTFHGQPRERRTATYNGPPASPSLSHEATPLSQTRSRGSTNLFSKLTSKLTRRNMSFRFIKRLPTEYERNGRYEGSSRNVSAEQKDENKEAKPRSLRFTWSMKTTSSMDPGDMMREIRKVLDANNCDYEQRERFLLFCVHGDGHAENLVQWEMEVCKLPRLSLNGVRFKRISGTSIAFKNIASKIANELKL
Sequence of RIPK2 (O43353 whole entry, species assumed): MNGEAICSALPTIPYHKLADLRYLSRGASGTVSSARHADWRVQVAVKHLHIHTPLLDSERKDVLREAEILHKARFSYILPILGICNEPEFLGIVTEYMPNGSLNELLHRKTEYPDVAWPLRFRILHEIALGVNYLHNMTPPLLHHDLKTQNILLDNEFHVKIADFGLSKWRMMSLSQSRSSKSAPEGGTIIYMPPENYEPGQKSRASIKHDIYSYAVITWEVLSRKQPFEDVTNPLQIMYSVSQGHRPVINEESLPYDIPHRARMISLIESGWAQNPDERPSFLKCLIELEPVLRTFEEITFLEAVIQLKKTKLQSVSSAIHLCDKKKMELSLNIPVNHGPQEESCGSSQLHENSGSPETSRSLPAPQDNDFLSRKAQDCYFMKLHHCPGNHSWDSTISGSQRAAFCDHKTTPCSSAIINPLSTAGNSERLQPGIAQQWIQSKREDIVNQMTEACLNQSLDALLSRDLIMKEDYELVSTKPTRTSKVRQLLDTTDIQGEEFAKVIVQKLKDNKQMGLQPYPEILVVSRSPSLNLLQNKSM

Compound CC(=O)Nc1nc2cc(C(F)(F)F)ccc2s1 [Compound 03-73] has a remaining activity at 100 µM [1, 18] of 22%, a remaining activity at 100 µM [2, 18] of 71% and a remaining activity at 100 µM [3, 18] of 60%. For the same compound, the remaining activity at 100 µM [4, 18] was 91%, the remaining activity at 100 µM [5, 18] was 106% and the remaining activity at 100 µM [6, 18] was 83%. It also gave a remaining activity at 100 µM [7, 18] of 63%, a remaining activity at 100 µM [8, 18] of 99% and a remaining activity at 100 µM [9, 18] of 45%. The remaining activity at 100 µM [10, 18] was 51%, the remaining activity at 100 µM [11, 18] was 80% and the remaining activity at 100 µM [12, 18] was 48%. For the same compound, the “residual kinase activity, VEG-FR” value [13, 18] was 33, the remaining activity at 100 µM [14, 18] was 78% and the remaining activity at 100 µM [15, 18] was 93%. For the same compound, the remaining activity at 100 µM [16] was 104% and the remaining activity at 100 µM [17, 18] was 91%.
CC(=O)Nc1cccc(NC(=O)c2nc3ccc(O)cc3s2)c1 [Compound 03-07, N-(3-acetamidophenyl)-6-hydroxybenzo[d]thiazole-2-carboxamide] was tested, and the remaining activity at 100 µM [1, 19] was 30%, the remaining activity at 100 µM [2, 19] was 21% and the remaining activity at 100 µM [3, 19] was 74%. For the same compound, the remaining activity at 100 µM [4, 19] was 93%, the remaining activity at 100 µM [5, 19] was 98% and the remaining activity at 100 µM [6, 19] was 102%. For the same compound, the remaining activity at 100 µM [7, 19] was 72%, the remaining activity at 100 µM [8, 19] was 88% and the remaining activity at 100 µM [9, 19] was 53%. It also gave a remaining activity at 100 µM [10, 19] of 46%, a remaining activity at 100 µM [11, 19] of 68% and a remaining activity at 100 µM [12, 19] of 18%. The “residual kinase activity, VEG-FR” value [13, 19] was 28, the remaining activity at 100 µM [14, 19] was 23% and the remaining activity at 100 µM [15, 19] was 93%. The remaining activity at 100 µM [16, 19] was 26% and the remaining activity at 100 µM [17, 19] was 74%.
For O=C(Nc1nc2cc(O)ccc2s1)c1cccnc1 [Compound 03-33], the “residual kinase activity, DYRK1A” value [1, 18] was 29, the “residual kinase activity, SmMLCK” value [2, 18] was 52 and the “residual kinase activity, IRAK4” value [3, 18] was 42. The “residual kinase activity, PLK1” value [4, 18] was 80, the “residual kinase activity, PKCγ” value [5, 18] was 103 and the “residual kinase activity, ERK1” value [6, 18] was 93. The “residual kinase activity, MARK3” value [7, 18] was 85, the “residual kinase activity, EPH-A2” value [8, 18] was 108 and the “residual kinase activity, TAK1” value [9, 18] was 73. For the same compound, the “residual kinase activity, HIPK2” value [10, 18] was 52, the “residual kinase activity, MST2” value [11, 18] was 73 and the “residual kinase activity, RIPK2” value [12, 18] was 20. For the same compound, the “residual kinase activity, VEG-FR” value [13, 18] was 50, the “residual kinase activity, CHK2” value [14, 18] was 46 and the “residual kinase activity, p38g MAPK” value [15, 18] was 85. For the same compound, the “residual kinase activity, PKBb” value [16] was 93 and the “residual kinase activity, PRK2” value [17, 18] was 85.
With O=C(Nc1nc2ccc(O)cc2s1)c1ccccc1 [Compound 03-60] the “residual kinase activity, DYRK1A” value [1, 18] was 2, the “residual kinase activity, SmMLCK” value [2, 18] was 15 and the “residual kinase activity, IRAK4” value [3, 18] was 22. For the same compound, the “residual kinase activity, PLK1” value [4, 18] was 74, the “residual kinase activity, PKCγ” value [5, 18] was 83 and the “residual kinase activity, ERK1” value [6, 18] was 67. For the same compound, the “residual kinase activity, MARK3” value [7, 18] was 33, the “residual kinase activity, EPH-A2” value [8, 18] was 77 and the “residual kinase activity, TAK1” value [9, 18] was 9. For the same compound, the “residual kinase activity, HIPK2” value [10, 18] was 8, the “residual kinase activity, MST2” value [11, 18] was 40 and the “residual kinase activity, RIPK2” value [12, 18] was 12. For the same compound, the “residual kinase activity, VEG-FR” value [13, 18] was 5, the “residual kinase activity, CHK2” value [14, 18] was 5 and the “residual kinase activity, p38g MAPK” value [15, 18] was 58. For the same compound, the “residual kinase activity, PKBb” value [16] was 86 and the “residual kinase activity, PRK2” value [17, 18] was 27.
For CC(=O)Nc1nc2ccc(C(F)(F)F)cc2s1 [Compound 01-90], the remaining activity at 100 µM [1, 18] was 8%, the remaining activity at 100 µM [2, 18] was 80% and the remaining activity at 100 µM [3, 18] was 12%. The remaining activity at 100 µM [4, 18] was 80%, the remaining activity at 100 µM [5, 18] was 53% and the remaining activity at 100 µM [6, 18] was 100%. The remaining activity at 100 µM [7, 18] was 61%, the remaining activity at 100 µM [8, 18] was 67% and the remaining activity at 100 µM [9, 18] was 83%. For the same compound, the remaining activity at 100 µM [10, 18] was 16%, the remaining activity at 100 µM [11, 18] was 99% and the remaining activity at 100 µM [12, 18] was 23%. The “residual kinase activity, VEG-FR” value [13, 18] was 8, the remaining activity at 100 µM [14, 18] was 43% and the remaining activity at 100 µM [15, 18] was 101%. The remaining activity at 100 µM [16] was 100% and the remaining activity at 100 µM [17, 18] was 94%.
